The test system of assay [1] is K562. Description: Antiproliferative activity was determined after 48 hr exposure to human myelogenous leukemia K562 cells. Type of assay: functional, cell-based. To be noted: K562, 48 h.
A further assay concerns HeLa. The experiment in a line: Antiproliferative activity was determined after 48 hr exposure to human cervix carcinoma HeLa cells. In kind it is functional, cell-based.
The nature of assay [2]: Antiproliferative activity was determined after 48 hr exposure to human melanoma Fem-X cell. In kind it is functional, cell-based.
The nature of assay [3]: Antiproliferative activity was determined after 72 hr exposure to normal human peripheral blood mononuclear cells (PBMC) in the presence of 5 ug/mL Phytohemagglutinine. Type of assay: functional.
For assay [4], the system named is K562. Description: Antiproliferative activity was determined after 72 hr exposure to human myelogenous leukemia K562 cells. In kind it is functional, cell-based. The conditions noted are these: K562, 72 h.
A short description of assay [5]: Antiproliferative activity was determined after 72 hr exposure to normal human peripheral blood mononuclear cells (PBMC) in the absence of 5 ug/mL Phytohemagglutinine. Type of assay: functional.
Assay [6] can be described thus: Antiproliferative activity was determined after 72 hr exposure to human melanoma Fem-x cells. In kind it is functional, cell-based.
The test system of another assay is P388. The experiment in a line: Concentration required for antiproliferative activity against P388 cell survival by 50%. Type of assay: functional, cell-based. The conditions noted are these: Mus musculus.

Experimental findings from ChEMBL document CHEMBL1134697, “Synthesis and antiproliferative activity of epoxy and bromo compounds derived from estrone” (Bioorg Med Chem Lett, 2001) are described below.

By IC50 is commonly meant the concentration that gives 50% inhibition.

Where only a bound is given, the exact number is not on record here.

Take `C[C@]12CCC3C(CC[C@]45O[C@H]4[C@@H](O)C=C[C@]35O)C1CCC2O` (some centres undefined): the concentration for half-maximal inhibition (IC50) (in the assay with K562 [1]; in the assay on HeLa; in assay [2]) was more than 270 µM each time.

As for `C[C@]12CCC3C(CCC4=CC(=O)C=C[C@@]43O)C1CCC2=O` (some centres undefined), the concentration for half-maximal inhibition (IC50) (in the assay with K562 [1]; in the assay on HeLa; in assay [2]) was more than 100 µM throughout.

On to `C[C@]12CCC3[C@@H](CCC4=C(Br)C(=O)C=C[C@@]43O)[C@@H]1CCC2=O` (some centres undefined), for which the half-inhibitory concentration (IC50) with K562 [1] is 13.7 µM; in assay [3], 5.2 µM; in the assay on HeLa it was 6.17 µM; in the assay with K562 [4], 5.9 µM; in assay [5], 12.3 µM; in assay [6] it was 4.6 µM. The same molecule displayed an IC50 in assay [2] of 14.5 µM.

`C[C@]12CCC3[C@@H](CC[C@]45O[C@H]4C(=O)C(Br)=C[C@]35O)[C@@H]1CCC2=O` (some centres undefined): the IC50 in the assay on K562 [1] turned out to be 1.2 µM; in assay [3] it was 1.3 µM; with HeLa, 2.5 µM; with K562 [4], 0.7 µM; in assay [5], 2.9 µM; in assay [6], 1 µM. Further, in assay [2], the IC50 was 6 µM.

For `C[C@]12CC[C@H]3[C@@H](CC[C@]45O[C@H]4C(=O)C=C[C@]35O)[C@@H]1CCC2=O`, the values for the half-inhibitory concentration (IC50) (with K562 [1]; in the assay with HeLa; in assay [2]) were 6.22 µM, 5.73 µM and 7.1 µM, respectively.

For `O=C1C(Br)=C[C@H](O)[C@H]2O[C@@H]12`, the IC50 in the assay with P388 came to 0.049 µM.
